The text below walks through data of patent US7833551B2, “Inhibition of biogenic sulfide production via biocide and metabolic inhibitor combination” (ConocoPhillips Company, priority 2004, dated 2010).

The subject of this test is sulfate-reducing bacterial (SRB) consortium. The experiment in a line: Inhibition of sulfate reduction and sulfide production in SRB cultures for one month (MIC and biocide/metabolic inhibitor combinations). Format: cell-based, sulfate-reducing bacteria (Coleville SRB enrichment). The following applies: 720 h; minimum concentration necessary to prevent sulfide production by SRB for 30 days after contact; compound alone; certain test conditions; read-out: minimum inhibitory concentration (MIC).

Method: The sulfate-reducing bacterial (SRB) consortium used in this study was enriched from produced water obtained from the Coleville oil field near Kindersely, Sadkatchewan, Canada. […] The SRB consortium was maintained by weekly transfer in sPGC medium, and incubated at 30° C. […] The sPGC contained the following components per 1 liter of distilled water: 7 g NaCl; 1.2 g MgCl26H2O; 0.5 g KH2PO4; 1 g NH4Cl; 4.5 g Na2SO4; 0.042 g CaCl22H2O; 0.03 g MgSO47H2O; 0.004 g FeSO47H2O; 0.28 g sodium citrate; 10 g 60% sodium lactate; 1 g yeast extract; and a trace amount of rezazurin.
The cultures used in this study were grown in 100 mL of modified Coleville synthetic brine medium (mCSB) in 160-ml serum bottles, with a headspace of 5% H2, 10% CO2 balance N2. […]
Sulfate was measured using the turbidimetric method described in: American Public Health Association, Standard Methods for the Examination of Water and Wastewater. […]
For each biocide and metabolic inhibitor tested, the minimum inhibitory concentration (MIC; the minimum amount of biocide required to inhibit sulfate reduction and sulfide production in the SRB culture for one month) was determined.

Consider `O=CCCCC=O` [glutaraldehyde], for which the MIC turned out to be 5 mM.
